Seven compounds from patent US20220323406A1, “METHODS AND COMPOSITIONS FOR DIFFERENTIATING STEM CELLS” (Massachusetts Institute of Technology, priority 2019, published 2022) can be followed below.

Counter-ions that a name gives are not always drawn.

One experiment relates to ENR+CD organoids. Nature of the experiment: Primary screen: ATP (CellTiter-Glo 3D, CTG) cell number/viability, 2.5-D 384-well ENR+CD organoids.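 As to all read-outs here: compounds given at plating and again on day 3 over a 6-day differentiation from ENR+CV stem-cell-enriched precursors, ATP measured on day 6, plate median as control.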 As to conditions: primary screen; for Z.CTG: standard z score.
Experiment [1] concerns ENR+CD organoids (ISC to Paneth cell differentiation). The experiment can be described thus: Primary screen: basal (non-stimulated) lysozyme secretion LYZ.NS, 2.5-D 384-well ENR+CD organoid differentiation. The format is cell-based, mouse. As to conditions: primary screen; for Z.LYZ.NS: standard z score. The text has this: (§1) High-throughput screening.
Experiment [2] has the same test system. The experiment can be described thus: Primary screen: CCh-stimulated lysozyme secretion LYZ.S, 2.5-D 384-well ENR+CD organoid differentiation. It counts as cell-based, mouse. To be noted: primary screen.
Text: as §1

Setting [3] is: 1st dose row of the treatment (0.08 uM by row order; dose not reprinted).
[4] abbreviates: 2nd dose row of the treatment (0.40 uM by row order; dose not reprinted).
[5] abbreviates: 3rd dose row of the treatment (2.00 uM by row order; dose not reprinted).
Setting [6] is: 4th dose row of the treatment (10.00 uM by row order; dose not reprinted).

Turning to `COc1cc2c(cc1Cc1cccc(Cl)c1F)c(=O)c(C(=O)O)cn2[C@H](CO)C(C)C` [Elvitegravir (GS-9137, JTK-303)], the Dose.FC.CTG with ENR+CD organoids (dose 0.08 uM) is −0.001 log2 fold change; in the experiment with ENR+CD organoids (dose 0.40 uM), −0.040 log2 fold change; with ENR+CD organoids (dose 2.00 uM) it was −0.344 log2 fold change; with ENR+CD organoids (dose 10.00 uM), −0.737 log2 fold change. Besides, the Z.CTG in the experiment on ENR+CD organoids (dose 0.08 uM) is reported as −0.001; in the experiment with ENR+CD organoids (dose 0.40 uM) it was −0.095; in the experiment with ENR+CD organoids (dose 2.00 uM), −0.823; in the experiment on ENR+CD organoids (dose 10.00 uM), −1.760. In addition, the Dose.FC.LYZ.NS in experiment [1] (dose 0.08 uM) was −0.047 log2 fold change; in experiment [1] (dose 0.40 uM) it was −0.069 log2 fold change; in experiment [1] (dose 2.00 uM) it was −0.094 log2 fold change; in experiment [1] (dose 10.00 uM), −0.090 log2 fold change. Moreover, the Z.LYZ.NS in experiment [1] (dose 0.08 uM) is reported as −0.412; in experiment [1] (dose 0.40 uM), −0.598; in experiment [1] (dose 2.00 uM), −0.821; in experiment [1] (dose 10.00 uM) it was −0.782. The Dose.FC.LYZ.S in experiment [2] (dose 0.08 uM) is given as −0.010 log2 fold change; in experiment [2] (dose 0.40 uM), 0.092 log2 fold change; in experiment [2] (dose 2.00 uM) it was −0.126 log2 fold change; in experiment [2] (dose 10.00 uM), −0.135 log2 fold change.

With `Clc1ccccc1CN1CCc2sccc2C1` [Ticlopidine HCl], the Dose.FC.CTG in the experiment with ENR+CD organoids (dose 0.08 uM) is reported as −0.118 log2 fold change; in the experiment on ENR+CD organoids (dose 0.40 uM), −0.041 log2 fold change; with ENR+CD organoids (dose 2.00 uM), −0.234 log2 fold change; in the experiment on ENR+CD organoids (dose 10.00 uM), −0.005 log2 fold change. For the same compound, the Dose.FC.LYZ.NS in experiment [1] (dose 0.08 uM) was 0.043 log2 fold change; in experiment [1] (dose 0.40 uM), 0.010 log2 fold change; in experiment [1] (dose 2.00 uM), −0.002 log2 fold change; in experiment [1] (dose 10.00 uM), −0.035 log2 fold change. In addition, the “Z.LYZ.NS (standard z score)” value in experiment [1] (dose 0.08 uM) was 0.373; in experiment [1] (dose 0.40 uM), 0.084; in experiment [1] (dose 2.00 uM), −0.018; in experiment [1] (dose 10.00 uM), −0.308. For the same compound, the Dose.FC.LYZ.S in experiment [2] (dose 0.08 uM) is listed as 0.052 log2 fold change; in experiment [2] (dose 0.40 uM), 0.072 log2 fold change; in experiment [2] (dose 2.00 uM), −0.022 log2 fold change; in experiment [2] (dose 10.00 uM) it was 0.076 log2 fold change.

For the compound `Cl.Cl.Cl.O[C@@H](COc1cccc2ncccc12)CN1CCN([C@@H]2c3ccccc3[C@@H]3[C@H](c4ccccc42)C3(F)F)CC1` [Zosuquidar (LY335979) 3HCl], the Dose.FC.CTG was 0.017 log2 fold change with ENR+CD organoids (dose 0.08 uM), 0.197 log2 fold change in the experiment with ENR+CD organoids (dose 0.40 uM), 0.276 log2 fold change in the experiment with ENR+CD organoids (dose 2.00 uM) and −0.193 log2 fold change with ENR+CD organoids (dose 10.00 uM). The “Z.CTG (standard z score)” value with ENR+CD organoids (dose 0.08 uM) was 0.041; with ENR+CD organoids (dose 0.40 uM), 0.470; in the experiment on ENR+CD organoids (dose 2.00 uM) it was 0.659; in the experiment on ENR+CD organoids (dose 10.00 uM) it was −0.461. Besides, the Dose.FC.LYZ.NS is 0.096 log2 fold change in experiment [1] (dose 0.08 uM), 0.080 log2 fold change in experiment [1] (dose 0.40 uM), 0.207 log2 fold change in experiment [1] (dose 2.00 uM) and −0.209 log2 fold change in experiment [1] (dose 10.00 uM). The “Z.LYZ.NS (standard z score)” value in experiment [1] (dose 0.08 uM) is on record as 0.839; in experiment [1] (dose 0.40 uM), 0.696; in experiment [1] (dose 2.00 uM), 1.802; in experiment [1] (dose 10.00 uM) it was −1.821. The Dose.FC.LYZ.S in experiment [2] (dose 0.08 uM) is given as 0.124 log2 fold change; in experiment [2] (dose 0.40 uM) it was 0.127 log2 fold change; in experiment [2] (dose 2.00 uM), 0.129 log2 fold change; in experiment [2] (dose 10.00 uM), −0.200 log2 fold change.

As for `CCOC(=O)C1=C(COCCN)NC(C)=C(C(=O)OC)C1c1ccccc1Cl` (stereo not shown) [Amlodipine], the Dose.FC.CTG is listed as −0.351 log2 fold change in the experiment with ENR+CD organoids (dose 0.08 uM), −0.363 log2 fold change in the experiment with ENR+CD organoids (dose 0.40 uM), −0.372 log2 fold change in the experiment with ENR+CD organoids (dose 2.00 uM) and −0.421 log2 fold change in the experiment with ENR+CD organoids (dose 10.00 uM). For the same compound, the Dose.FC.LYZ.NS in experiment [1] (dose 0.08 uM) is on record as 0.026 log2 fold change; in experiment [1] (dose 0.40 uM), 0.024 log2 fold change; in experiment [1] (dose 2.00 uM) it was −0.065 log2 fold change; in experiment [1] (dose 10.00 uM) it was −0.135 log2 fold change. For the same compound, the “Z.LYZ.NS (standard z score)” value was 0.228 in experiment [1] (dose 0.08 uM), 0.210 in experiment [1] (dose 0.40 uM), −0.568 in experiment [1] (dose 2.00 uM) and −1.172 in experiment [1] (dose 10.00 uM). Further, the Dose.FC.LYZ.S in experiment [2] (dose 0.08 uM) is −0.042 log2 fold change; in experiment [2] (dose 0.40 uM) it was −0.015 log2 fold change; in experiment [2] (dose 2.00 uM), −0.122 log2 fold change; in experiment [2] (dose 10.00 uM), −0.155 log2 fold change.

With VU 0364439, the Dose.FC.CTG in the experiment with ENR+CD organoids (dose 0.08 uM) is 0.024 log2 fold change; in the experiment with ENR+CD organoids (dose 0.40 uM), −0.121 log2 fold change; in the experiment with ENR+CD organoids (dose 2.00 uM), −0.258 log2 fold change; in the experiment on ENR+CD organoids (dose 10.00 uM), 0.009 log2 fold change. Moreover, the “Z.CTG (standard z score)” value is 0.058 in the experiment with ENR+CD organoids (dose 0.08 uM), −0.289 in the experiment on ENR+CD organoids (dose 0.40 uM), −0.616 with ENR+CD organoids (dose 2.00 uM) and 0.022 in the experiment on ENR+CD organoids (dose 10.00 uM). In addition, the Dose.FC.LYZ.NS in experiment [1] (dose 0.08 uM) is 0.082 log2 fold change; in experiment [1] (dose 0.40 uM), 0.011 log2 fold change; in experiment [1] (dose 2.00 uM) it was 0.010 log2 fold change; in experiment [1] (dose 10.00 uM) it was −0.055 log2 fold change. For the same compound, the “Z.LYZ.NS (standard z score)” value is 0.715 in experiment [1] (dose 0.08 uM), 0.099 in experiment [1] (dose 0.40 uM), 0.089 in experiment [1] (dose 2.00 uM) and −0.476 in experiment [1] (dose 10.00 uM). For the same compound, the Dose.FC.LYZ.S in experiment [2] (dose 0.08 uM) was 0.108 log2 fold change; in experiment [2] (dose 0.40 uM) it was 0.124 log2 fold change; in experiment [2] (dose 2.00 uM), −0.043 log2 fold change; in experiment [2] (dose 10.00 uM), −0.038 log2 fold change.

In the case of `CN1CCc2cc3c(cc2[C@H]1[C@@H]1OC(=O)c2c1ccc1c2OCO1)OCO3` [(+)-Bicuculline], the “SSMD.CTG.Rep (strictly standardized mean difference)” value is on record as 0.472 in the experiment with ENR+CD organoids (setting [3]), −0.078 in the experiment on ENR+CD organoids (setting [4]), −0.237 in the experiment with ENR+CD organoids (setting [5]) and −0.405 in the experiment on ENR+CD organoids (setting [6]). Moreover, the Dose.FC.CTG is recorded as 0.318 log2 fold change with ENR+CD organoids (dose 0.08 uM), −0.029 log2 fold change in the experiment on ENR+CD organoids (dose 0.40 uM), −0.166 log2 fold change with ENR+CD organoids (dose 2.00 uM) and −0.132 log2 fold change in the experiment on ENR+CD organoids (dose 10.00 uM). In addition, the “Z.CTG (standard z score)” value in the experiment on ENR+CD organoids (dose 0.08 uM) is given as 0.760; in the experiment on ENR+CD organoids (dose 0.40 uM), −0.069; with ENR+CD organoids (dose 2.00 uM), −0.396; in the experiment on ENR+CD organoids (dose 10.00 uM), −0.315. The “SSMD.LYZ.NS_Rep (strictly standardized mean difference)” value in experiment [1] (setting [3]) is reported as 0.481; in experiment [1] (setting [4]), 0.106; in experiment [1] (setting [5]), 0.276; in experiment [1] (setting [6]), 0.175. Further, the Dose.FC.LYZ.NS is given as 0.092 log2 fold change in experiment [1] (dose 0.08 uM), 0.013 log2 fold change in experiment [1] (dose 0.40 uM), 0.031 log2 fold change in experiment [1] (dose 2.00 uM) and 0.020 log2 fold change in experiment [1] (dose 10.00 uM). Besides, the “Z.LYZ.NS (standard z score)” value came to 0.805 in experiment [1] (dose 0.08 uM), 0.116 in experiment [1] (dose 0.40 uM), 0.270 in experiment [1] (dose 2.00 uM) and 0.176 in experiment [1] (dose 10.00 uM). Besides, the “SSMD.LYZ.S_Rep (strictly standardized mean difference)” value in experiment [2] (setting [3]) is reported as 0.545; in experiment [2] (setting [4]), 0.216; in experiment [2] (setting [5]) it was −0.164; in experiment [2] (setting [6]), 0.264. The “Z.LYZ.S (standard z score)” value in experiment [2] (setting [3]) is 1.005; in experiment [2] (setting [4]), 0.221; in experiment [2] (setting [5]), −0.169; in experiment [2] (setting [6]), 0.465. Besides, the Dose.FC.LYZ.S in experiment [2] (dose 0.08 uM) was 0.155 log2 fold change; in experiment [2] (dose 0.40 uM), 0.034 log2 fold change; in experiment [2] (dose 2.00 uM) it was −0.026 log2 fold change; in experiment [2] (dose 10.00 uM), 0.072 log2 fold change.

As for `CCCS(=O)(=O)Nc1ccc(F)c(C(=O)c2c[nH]c3ncc(-c4ccc(Cl)cc4)cc23)c1F` [Vemurafenib (PLX4032, RG7204)], the Dose.FC.CTG is 0.124 log2 fold change in the experiment on ENR+CD organoids (dose 0.08 uM), −0.082 log2 fold change in the experiment with ENR+CD organoids (dose 0.40 uM), −0.006 log2 fold change in the experiment on ENR+CD organoids (dose 2.00 uM) and 0.030 log2 fold change in the experiment with ENR+CD organoids (dose 10.00 uM). In addition, the “Z.CTG (standard z score)” value with ENR+CD organoids (dose 0.08 uM) is recorded as 0.297; in the experiment with ENR+CD organoids (dose 0.40 uM), −0.195; in the experiment on ENR+CD organoids (dose 2.00 uM), −0.014; with ENR+CD organoids (dose 10.00 uM), 0.073. The Dose.FC.LYZ.NS in experiment [1] (dose 0.08 uM) is listed as 0.090 log2 fold change; in experiment [1] (dose 0.40 uM), 0.053 log2 fold change; in experiment [1] (dose 2.00 uM), 0.047 log2 fold change; in experiment [1] (dose 10.00 uM), 0.030 log2 fold change. In addition, the “Z.LYZ.NS (standard z score)” value in experiment [1] (dose 0.08 uM) is given as 0.786; in experiment [1] (dose 0.40 uM) it was 0.462; in experiment [1] (dose 2.00 uM), 0.411; in experiment [1] (dose 10.00 uM), 0.263. Further, the Dose.FC.LYZ.S in experiment [2] (dose 0.08 uM) amounted to 0.120 log2 fold change; in experiment [2] (dose 0.40 uM), 0.150 log2 fold change; in experiment [2] (dose 2.00 uM), 0.055 log2 fold change; in experiment [2] (dose 10.00 uM), 0.022 log2 fold change.
